Measurements published in patent US11806342B2, “Diiodohydroxyquinoline for the treatment of clostridium difficile infection” (Purdue Research Foundation, priority 2019, dated 2023).

What was measured:
[1] = test system: C. difficile P8; assay: MIC and MBC, broth microdilution; type: cell-based, Clostridium difficile; conditions: Clostridioides difficile, C. difficile P8
Description: (§1) MIC50 and MIC90 are the minimum concentration of each agent that inhibited growth of 50% and 90% of the tested isolates, respectively. The minimum bactericidal concentration (MBC) of these drugs was tested by plating 5 μL from wells with no growth onto BHIS agar plates. The MBC was categorized as the lowest concentration that reduced bacterial growth by 99.9% MIC50 and MIC90 are the minimum concentration of each agent that inhibited the growth of 50% and 90% of the tested isolates, respectively. The minimum bactericidal concentration (MBC) of these drugs was tested by plating 5 μL from wells with no growth onto BHIS agar plates. The MBC was categorized as the lowest concentration that reduced bacterial growth by 99.9% [29-31].

[2] = test system: C. difficile I2; assay: MIC and MBC, broth microdilution; type: cell-based, Clostridium difficile; conditions: Clostridioides difficile, C. difficile I2
Description: as §1

[3] = test system: C. difficile NR-49290; assay: MIC and MBC, broth microdilution; type: cell-based, Clostridium difficile; conditions: Clostridioides difficile, NR49290, C. difficile NR-49290; for MBC: read-out: MBC
Description: as §1

[4] = test system: C. difficile P2; assay: MIC and MBC, broth microdilution; type: cell-based, Clostridium difficile; conditions: Clostridioides difficile, C. difficile P2; for MBC: read-out: MBC
Description: as §1

[5] = test system: C. difficile P24; assay: MIC and MBC, broth microdilution; type: cell-based, Clostridium difficile; conditions: Clostridioides difficile, C. difficile P24; for MBC: read-out: MBC
Description: as §1

[6] = test system: C. difficile NR-49277; assay: MIC and MBC, broth microdilution; type: cell-based, Clostridium difficile; conditions: Clostridioides difficile, NR49277, C. difficile NR-49277
Description: as §1

[7] = test system: C. difficile HM-89; assay: MIC and MBC, broth microdilution; type: cell-based, Clostridium difficile; conditions: Clostridioides difficile, HM89, C. difficile HM-89
Description: as §1

[8] = test system: C. difficile ATCC 9689; assay: MIC and MBC, broth microdilution; type: cell-based, Clostridium difficile; conditions: Clostridioides difficile, ATCC9689, C. difficile ATCC 9689; for MBC: read-out: MBC
Description: as §1

[9] = test system: C. difficile P13; assay: MIC and MBC, broth microdilution; type: cell-based, Clostridium difficile; conditions: Clostridioides difficile, C. difficile P13; for MBC: read-out: MBC
Description: as §1

[10] = test system: C. difficile NR-49286; assay: MIC and MBC, broth microdilution; type: cell-based, Clostridium difficile; conditions: Clostridioides difficile, NR49286, C. difficile NR-49286
Description: as §1

[11] = test system: C. difficile P11; assay: MIC and MBC, broth microdilution; type: cell-based, Clostridium difficile; conditions: Clostridioides difficile, C. difficile P11; for MBC: read-out: MBC
Description: as §1

[12] = test system: C. difficile I1; assay: MIC and MBC, broth microdilution; type: cell-based, Clostridium difficile; conditions: Clostridioides difficile, C. difficile I1
Description: as §1

[13] = test system: C. difficile NR-49284; assay: MIC and MBC, broth microdilution; type: cell-based, Clostridium difficile; conditions: Clostridioides difficile, NR49284, C. difficile NR-49284
Description: as §1

[14] = test system: C. difficile ATCC 700057; assay: MIC and MBC, broth microdilution; type: cell-based, Clostridium difficile; conditions: Clostridioides difficile, ATCC700057, C. difficile ATCC 700057
Description: as §1

[15] = test system: C. difficile NR-49281; assay: MIC and MBC, broth microdilution; type: cell-based, Clostridium difficile; conditions: Clostridioides difficile, NR49281, C. difficile NR-49281
Description: as §1

[16] = test system: C. difficile ATCC BAA-1870; assay: MIC and MBC, broth microdilution; type: cell-based, Clostridium difficile; conditions: Clostridioides difficile, ATCCBAA1870, C. difficile ATCC BAA-1870
Description: as §1

[17] = test system: C. difficile ATCC 43598; assay: MIC and MBC, broth microdilution; type: cell-based, Clostridium difficile; conditions: Clostridioides difficile, ATCC43598, C. difficile ATCC 43598
Description: as §1

[18] = test system: C. difficile I4; assay: MIC and MBC, broth microdilution; type: cell-based, Clostridium difficile; conditions: Clostridioides difficile, C. difficile I4
Description: as §1

[19] = test system: C. difficile P1; assay: MIC and MBC, broth microdilution; type: cell-based, Clostridium difficile; conditions: Clostridioides difficile, C. difficile P1
Description: as §1

[20] = test system: C. difficile P7; assay: MIC and MBC, broth microdilution; type: cell-based, Clostridium difficile; conditions: Clostridioides difficile, C. difficile P7
Description: as §1

[21] = test system: Bifidobacterium adolescentis HM-633; assay: MIC against normal gut microflora, broth microdilution; type: cell-based; conditions: HM633; Bifidobacterium adolescentis HM-633; read-out: MIC
Description: (§2) In vitro antimicrobial evaluation of diiodohydroxyquinoline against normal microflora. The broth microdilution assay was utilized to determine the MICs of DIHQ and control antibiotics against commensal organisms that compose he human gut microflora, as described elsewhere. A bacterial solution equivalent to 0.5 McFarland standard was prepared and diluted in BHIS broth (for Bifidobacterium and Bacteroides) or in MRS broth (for Lactobacillus) to achieve a bacterial concentration of about 5×10^5 CFU/mL. Then, drugs were added and serially diluted along the plates.

[22] = test system: Bacteroides dorei HM-717; assay: as above; type: cell-based; conditions: Phocaeicola dorei, HM717; Bacteroides dorei HM-717; read-out: MIC
Description: as §2

[23] = test system: Bifidobacterium breve HM-1120; assay: as above; type: cell-based; conditions: HM1120; Bifidobacterium breve HM-1120; read-out: MIC
Description: as §2

[24] = test system: Bacteroides fragilis HM-711; assay: as above; type: cell-based; conditions: HM711; Bacteroides fragilis HM-711; read-out: MIC
Description: as §2

[25] = test system: Bacteroides fragilis HM-709; assay: as above; type: cell-based; conditions: HM709; Bacteroides fragilis HM-709; read-out: MIC
Description: as §2

[26] = test system: Bacteroides fragilis HM-710; assay: as above; type: cell-based; conditions: HM710; Bacteroides fragilis HM-710; read-out: MIC
Description: as §2

[27] = test system: Bacteroides dorei HM-29; assay: as above; type: cell-based; conditions: Phocaeicola dorei, HM29; Bacteroides dorei HM-29; read-out: MIC
Description: as §2

[28] = test system: Bacteroides fragilis HM-714; assay: as above; type: cell-based; conditions: HM714; Bacteroides fragilis HM-714; read-out: MIC
Description: as §2

[29] = test system: Bacteroides dorei HM-718; assay: as above; type: cell-based; conditions: Phocaeicola dorei, HM718; Bacteroides dorei HM-718; read-out: MIC
Description: as §2

[30] = test system: Bifidobacterium longum HM-845; assay: as above; type: cell-based; conditions: HM845; Bifidobacterium longum HM-845; read-out: MIC
Description: as §2

CCc1c(Cl)c(O)c(Cl)c(O)c1C(=O)O[C@H]1[C@H](O)[C@H](OC)[C@H](OC/C2=C\C=C\C[C@H](O)/C(C)=C/[C@H](CC)[C@@H](O[C@@H]3OC(C)(C)[C@@H](OC(=O)C(C)C)[C@H](O)[C@@H]3O)/C(C)=C/C(C)=C/C[C@@H]([C@@H](C)O)OC2=O)O[C@@H]1C [Fidaxomicin, fidaxomicin]
0.015 µg/mL: MBC ([1]; read-out: MBC) | MIC ([1]; read-out: MIC) | MBC [3] | MIC ([3]; read-out: MIC) | MIC ([5]; read-out: MIC) | MBC [9] | MIC ([9]; read-out: MIC) | MBC ([10]; read-out: MBC) | MBC ([13]; read-out: MBC) | MIC ([13]; read-out: MIC) | MBC ([17]; read-out: MBC) | MIC ([17]; read-out: MIC) | MBC ([18]; read-out: MBC) | MIC ([18]; read-out: MIC)
0.003 µg/mL: MIC ([19]; read-out: MIC)
0.03 µg/mL: MBC [4] | MIC ([4]; read-out: MIC) | MBC [5] | MBC ([6]; read-out: MBC) | MIC ([6]; read-out: MIC) | MBC ([7]; read-out: MBC) | MIC ([7]; read-out: MIC) | MBC [8] | MIC ([8]; read-out: MIC) | MBC [11] | MIC ([11]; read-out: MIC) | MBC ([16]; read-out: MBC) | MIC ([16]; read-out: MIC)
0.06 µg/mL: MBC ([20]; read-out: MBC) | MIC ([20]; read-out: MIC)
≤ 1 µg/mL: MIC [21] | MIC [23] | MIC [30]
0.007 µg/mL: MBC ([2]; read-out: MBC) | MIC ([2]; read-out: MIC) | MIC ([10]; read-out: MIC) | MBC ([12]; read-out: MBC) | MIC ([12]; read-out: MIC) | MBC ([14]; read-out: MBC) | MIC ([14]; read-out: MIC) | MBC ([15]; read-out: MBC) | MIC ([15]; read-out: MIC) | MBC ([19]; read-out: MBC)
> 128 µg/mL: MIC [22] | MIC [24] | MIC [25] | MIC [26] | MIC [27] | MIC [28] | MIC [29]

Cc1ncc([N+](=O)[O-])n1CCO [Metronidazole, metronidazole]
2 µg/mL: MIC [25] | MIC [26]
0.25 µg/mL: MBC [3] | MBC [4] | MBC [5] | MBC [8] | MBC [9] | MBC [11]
≤ 1 µg/mL: MIC [21] | MIC [22] | MIC [23] | MIC [24] | MIC [27] | MIC [28] | MIC [29] | MIC [30]
